Activity calls are given as the source filed them. No rule for the calls is given here.
Tested on: HepG2 viability, CellTiter-Glo ATP luminescence, overnight
Experiment: HepG2 cell viability, dose response, cytotoxicity control for Trib1 inducer project, ATP luminescence, cherry-pick (AID 1053145)

## CN1C(=O)c2cc(NC(=O)c3ccc(C(F)(F)F)cc3)ccc2OC[C@@H]2O[C@H](CC(=O)NC3Cc4ccccc4C3)CC[C@@H]21
  AC50: > 25 µM (inactive)

## CN1C(=O)c2cc(NC(=O)c3ccc(C(F)(F)F)cc3)ccc2OC[C@@H]2O[C@@H](CC(=O)NC3Cc4ccccc4C3)CC[C@@H]21
  AC50: > 25 µM (inactive)
